This is an account of results in patent US8946262B2, “Methods of preventing and treating gastrointestinal dysfunction” (Adolor Corporation, priority 2003, dated 2015).

One data set relates to GI transit. As to the kind of experiment: GI transit score (GITS) by transit of radio-opaque markers (SITZMARKS) in subjects given loperamide. Particulars: for GI Score: x-ray Day 4, group mean, normal 255.56. The format is in vivo, healthy subjects. As to the method:
Subjects were randomly assigned to receive one of the following five treatments: • Group 1: […] Study Assessments Subjects were assessed for their pain at the I.V. infusion site using a categorical four-point verbal scale (i.e., no discomfort/pain, mild discomfort/pain, moderate pain, or severe pain). The Investigator also assessed certain characteristics (e.g., erythema) of the I.V. site (i.e., none, mild, moderate, or severe). Abdominal x-rays and x-rays of stool samples were performed to determine the location of the […] markers. Oral […] capsules were administered on Days 1, 2, and 3 at the same time that study medication is administered each day.

Data set [1] is described as follows: Plasma exposure (AUC (τ)) of I.V. alvimopan given for 4 days with loperamide. The format is in vivo, healthy subjects. Particulars: group mean. As to the method:
Subjects were randomly assigned to receive one of the following five treatments: • Group 1: […] Study Assessments Serial blood samples were collected for the determination of concentrations of alvimopan and its amide hydrolysis metabolite in plasma. The appropriate dose was drawn into the delivery system, normal saline was added to bring the total volume to 6 mL, and the contents will be mixed thoroughly. Placebo for alvimopan I.V. was 6 mL of normal saline. […] The first eight subjects in each treatment group followed a full sampling schedule and the last four subjects followed a sparse sampling schedule. For the first eight subjects (full sampling schedule), blood samples was collected just prior to administration of alvimopan I.V. on Days 1 through 4 (four samples); and at 0.5, 1, 1.5, 2, 5, 10, 20, 30, and 60 minutes and at 2, 4, 6, 8, 10, 12, 16, 24, 48, 72, 96, 120, 144, and 168 hours after the end of the infusion of alvimopan I.V. on Day 4. This is a total of 27 samples per subject (135 mL per subject). For the last four subjects in each treatment group (sparse sampling schedule), blood was collected prior to administration of alvimopan I.V. on Days 1 through 4 (four samples), and immediately following the last infusion on Day 4. Subjects were randomized to have one sample collected during each of the following intervals, relative to the end of the infusion on Day 4: […]

The next data set in a line: Solubility in water. The format is physicochemical. Particulars: except at low or high pH conditions.
Data set [2] addresses μ opioid receptors in the GI tract (Homo sapiens, UniProt P35372). As to the kind of experiment: Free alvimopan plasma concentration after a 12 mg oral dose before surgery, compared with Ki. Type of data set: in vivo, patients. As to the method: A Practical Introduction to Structure, Mechanism, and Data Analysis, 2nd Edition, (New York: Wiley-VCH, 2000), page 88, the disclosure of which is incorporated herein by reference.
Twelve milligrams of alvimopan (two 6 mg capsules) was administered orally to patients about 120 minutes prior to surgery. The free alvimopan plasma concentration was measured for about 24 hours.

Setting [3] is: Group 3 (alvimopan 1 mg I.V. b.i.d. + loperamide 2 mg p.o. q.i.d.).
Where [4] appears, read: Group 4 (alvimopan 0.45 mg I.V. b.i.d. + loperamide 2 mg p.o. q.i.d.).
Where [5] appears, read: Group 5 (alvimopan 0.1 mg I.V. b.i.d. + loperamide 2 mg p.o. q.i.d.).

The structures appear in SMILES notation. A value given as a limit tells only on which side of the number the result lay.

μ opioid receptors in the GI tract, sequence (P35372 whole entry): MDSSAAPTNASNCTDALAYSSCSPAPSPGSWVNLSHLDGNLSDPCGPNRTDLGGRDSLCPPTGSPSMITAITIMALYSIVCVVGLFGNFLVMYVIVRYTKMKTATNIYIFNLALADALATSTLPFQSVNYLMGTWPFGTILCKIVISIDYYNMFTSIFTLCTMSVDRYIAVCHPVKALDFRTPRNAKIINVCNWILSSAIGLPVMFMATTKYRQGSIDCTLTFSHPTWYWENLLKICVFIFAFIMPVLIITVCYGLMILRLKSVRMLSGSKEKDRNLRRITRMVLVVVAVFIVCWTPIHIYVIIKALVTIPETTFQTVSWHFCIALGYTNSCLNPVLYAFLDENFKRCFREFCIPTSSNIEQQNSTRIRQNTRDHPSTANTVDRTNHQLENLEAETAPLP

For the molecule `CN(C)C(=O)C(CCN1CCC(O)(c2ccc(Cl)cc2)CC1)(c1ccccc1)c1ccccc1` [loperamide, reference compound], the “GI Score” value in the data set on GI transit (Group 2: loperamide 2 mg p.o. q.i.d. + placebo for alvimopan I.V.) turned out to be 208.67.
Take `C[C@H]1CN(C[C@H](Cc2ccccc2)C(=O)NCC(=O)O)CC[C@@]1(C)c1cccc(O)c1` [alvimopan, [[(2S)-2-[[(3R,4R)-4-(3-hydroxyphenyl)-3,4-dimethylpiperidin-1-yl]methyl]-3-phenylpropanoyl]amino]acetic acid dihydrate]: the entries for the “GI Score” value with GI transit (setting [3]), in the data set with GI transit (setting [4]) and with GI transit (setting [5]) were 231, 274.62 and 278.5, respectively. In addition, the “GI score compared with Group 2 (loperamide + placebo) and normal (Group 1)” value with GI transit (Group 4) and with GI transit (Group 5) was “statistically different from Group 2” in each case. Further, the “AUC (τ) of Alvimopan” value in data set [1] (setting [3]) was found to be 4.36 ng·mL/h; in data set [1] (setting [4]) it was 22.06 ng·mL/h; in data set [1] (setting [5]) it was 49.79 ng·mL/h. Further, the solubility in water entry in the data set “Solubility in water” is recorded as “low solubility in water”. The “free plasma concentrations versus saturation of μ opioid receptors in the GI tract” value in data set [2] (single 12 mg oral dose (two 6 mg capsules), about 120 minutes prior to surgery, FIG. 1) is reported as “sufficient to substantially saturate μ opioid receptors in the GI tract”. Moreover, the “Maximum free plasma concentrations achieved relative to the Ki” value in data set [2] (single 12 mg oral dose, FIG. 1) was 11 fold. Also, the receptor occupancy at 12 mg in data set [2] (single 12 mg oral dose, read-out: estimated receptor occupancy) was > 68%.
